Experimental data: patent US9883691B2, “Food and beverage products containing 1,3-propanediol and methods of modifying flavor release using 1,3-propanediol” (Kraft Foods Group Brands LLC, priority 2012, dated 2018)

Key:
Format in all cases: physicochemical
[1] = PTR-MS headspace release with various non-aqueous liquids (diols) at 0.05:100 (Example 3); conditions: ratio 0.05:100; for PTR-MS headspace release in 1,3-butanediol: non-aqueous liquid 1,3-butanediol; for PTR-MS headspace release in 1,3-butanediol / PTR-MS headspace release in 1,3-propanediol / PTR-MS headspace release in 1,4-butanediol / PTR-MS headspace release in 1,7-heptanediol / PTR-MS headspace release in Propylene glycol: diluted in water; for PTR-MS headspace release in 1,3-propanediol: non-aqueous liquid 1,3-propanediol; for PTR-MS headspace release in 1,4-butanediol: non-aqueous liquid 1,4-butanediol; for PTR-MS headspace release in 1,7-heptanediol: non-aqueous liquid 1,7-heptanediol; for PTR-MS headspace release in Propylene glycol: non-aqueous liquid propylene glycol
Method: […]. The flavoring was then diluted in water for analysis. The final concentration of each compound was held constant at 8 ppm except furfuryl mercaptan was included at 1.6 ppm to maintain a constant flavor level in the resulting beverage while the non-aqueous liquid varied but the ratio of each compound to non-aqueous liquid was held constant at 0.05:100. A variety of non-aqueous liquids were evaluated, including 1,4-butandiol; 1,7-heptandiol; 1,3-butandiol, propylene glycol, and 1,3-propanediol.
Samples were analyzed by PTR-MS as described in Example 1.
Percent suppression was calculated by the following formula: (I1-3-diol−Ialternate diol)/Ialternate diol×100.

[2] = PTR-MS real-time headspace release, watermelon flavor model in water (Example 1); design: Sample A (PG) Mean / Sample B (1,3-propanediol) Mean: unit not given here; conditions: for Sample B (1,3-propanediol) Mean / Sample A (PG) Mean: PTR-MS headspace, diluted in water, 90 minutes equilibration, mean of three; for Sample B (1,3-propanediol) Mean: watermelon flavor concentrate in 1,3-propanediol; for Sample A (PG) Mean: watermelon flavor concentrate in propylene glycol; for Percent Release Difference: Sample B (1,3-propanediol) relative to Sample A (PG)
Method: The impact of 1,3-propanediol on the release of flavor compounds can be analyzed by Proton Transfer Reaction Mass Spectrometry (PTR-MS; model TOF-8000 from Ionicon Analytik Inc.), where real-time headspace release of volatiles is measured. A sampling apparatus is needed in conjunction with the PTR-MS inlet to prevent variations caused by headspace kinetics. By one exemplary approach, the sampling apparatus includes a 4 ounce sample vessel equipped with a 2-hole lid which may be sealed by an adhesive film to allow equilibration. […]. The holes are equal sized (˜2 mm diameter) and match the outer diameter of the PTR-MS inlet line. The flow of the dilution gas into the vessel is regulated by the vacuum and proportional valve of the PTR-MS inlet system. The sample vessel has a base diameter of 47 mm and is 45 mm high, of which 8 mm of height is occupied by the sample in the vessel in these experiments. The 2 holes in the lid are equidistant from the edge of the vessel (˜20 mm) and about 30 mm from each other. The PTR-MS inlet is braced by clamps in a fixed position vertically above the laboratory bench (˜55 mm) and a silicone rubber depth gauge is affixed to the PTR-MS inlet tubing and set at 18 mm. The PTR-MS inlet is thus consistently oriented in a vertical position 18 mm below the inside lid of the vessel and 19 mm above the sample in the vessel. The sample vessel is then held in place during sampling according to the depth gauge on the inlet line and the vessel is subsequently supported on the bench by a 10 mm plastic spacer.
15 grams of the sample to be tested (e.g., food or beverage product containing 1,3-propanediol) are added to the vessel. The vessel is sealed and allowed to equilibrate at room temperature (˜22° C.) for 90 minutes. At the time of sampling, the seal is removed from both the sampling hole and the dilution gas hole in the lid and the vessel is immediately affixed to the PTR-MS inlet via the sampling hole. The real-time released flavor is measured from the headspace of the sample vessel for two minutes (according to the conditions listed in Table 1 below). A comparative sample is prepared that is otherwise identical to the test sample but contains propylene glycol or water instead of 1,3-propanediol. The comparative sample is then analyzed in triplicate by PTR-MS using the above-described procedure. The data can be analyzed using PTR-MS Viewer, Version 3.0.0.101 (Ionicon Analytik G.m.b.H). The point of maximum intensity for each compound of interest can be determined and recorded according to the PTR-MS Viewer software. The maximum intensity in counts over the timescale for each compound of interest can be used for data analysis as it reflects the static equilibrium headspace concentration in the system at the moment of seal removal. Due to the necessity of a dilution gas, the volatile concentration decreases over time as the compounds of interest re-equilibrate to a state of dynamic equilibrium in the headspace.
[…]. Sample A was prepared with 20 grams watermelon flavor concentrate and 80 grams propylene glycol. Sample B was prepared with 20 grams watermelon flavor concentrate and 80 grams 1,3-propanediol. Each of the samples was further diluted by adding 0.08 grams of each diluted concentrate to 99.92 grams water to provide a flavor water solution.
The diluted samples were analyzed by Proton Transfer Reaction Mass Spectrometry (PTR-MS; model TOF-8000 from Ionicon Analytik Inc.) for real-time headspace release volatiles measurement. Samples were analyzed in triplicate. […]. […].

[3] = PTR-MS headspace release at various flavor compound to 1,3-propanediol or PG ratios (Example 2); conditions: for Percent Suppression by 1,3-propanediol: (IZ−IPG)/IPG×100; for effect of 1,3-propanediol on release: flavor/1,3-propanediol ratio of 0.05:100; for release suppressed in the presence of 1,3-propanediol: 10% cut-off for significant difference, relative to PG
Method: The compounds listed below in Table 3 were added together to provide a liquid flavoring to analyze the role, if any, of the amount of 1,3-propanediol on flavor release. […] The amount of each flavor compound in the beverage was held constant at 8 ppm except furfuryl mercaptan was included at 1.6 ppm while the amount of propylene glycol or 1,3-propanediol varied.
The percent suppression was calculated using the following formula: (IZ−IPG)/IPG×100, where I is peak height, “Z” is 1,3-propanediol and “PG” is propylene glycol.

[4] = PTR-MS headspace release in neat solvent, solvent/solvent experiment (Example 5); design: key to Release Differences: “Z” indicates that 1,3-propanediol had higher equilibrium maximum (meaning more of the flavor was released in 1,3-propanediol); “P” indicates that propylene glycol had higher equilibrium maximum; “-” indicates no statistical difference (95% significance) between the two samples; conditions: 1.5 hrs equilibration
Method: […]. Then the head space was analyzed as described above.
0.86 grams of the concentrate was added to 100 grams of either propylene glycol or 1,3-propanediol to provide a 1,3-propanediol diluted concentrate or propylene glycol diluted concentrate. The diluted concentrates were then further diluted as outlined in Table 10 below.
A 15 gram sample was weighed into a 4 oz vessel and analyzed at 1.5 hrs. of equilibration time as described in the method of Example 4.

[5] = ratio 0.005:100, negative = suppressed vs PG

## OCCCCCCCO [1,7-heptandiol, reference compound]
[1]
  flavor release with the non-aqueous liquid relative to comparative diol: faster release than propylene glycol

## CCCCCCC(C=O)=Cc1ccccc1 [Hexyl cinnamic aldehyde]
[2]
  Sample B (1,3-propanediol) Mean: 1.32
  Sample A (PG) Mean: 0.95
  Percent Release Difference: 38.8%

## CC(=O)CCc1ccc(O)cc1 [Raspberry ketone]
[2]
  Sample B (1,3-propanediol) Mean: 0.04
  Sample A (PG) Mean: 0.07
  Percent Release Difference: −48.1%

## CC(C)CC=O [Isovaleraldehyde]
[3]; [5]
  Percent Suppression by 1,3-propanediol: 3.7%
[3]; ratio 0.05:100
  Percent Suppression by 1,3-propanediol: −1.3%
[3]; ratio 5:100
  Percent Suppression by 1,3-propanediol: −22.2%
[3]; ratio 15:100
  Percent Suppression by 1,3-propanediol: −2.6%
[1]
  PTR-MS headspace release in 1,3-butanediol: 40.9
  PTR-MS headspace release in 1,3-propanediol: 12.35
  PTR-MS headspace release in 1,4-butanediol: 62.5
  PTR-MS headspace release in 1,7-heptanediol: 63.5
  PTR-MS headspace release in Propylene glycol: 12.51
  Percent suppression by 1,3-butanediol relative to 1,4-butanediol: −53.0%

## COc1cc(C=O)ccc1O [Vanillin]
[2]
  Sample B (1,3-propanediol) Mean: 0.05
  Sample A (PG) Mean: 0.05
  Percent Release Difference: 3.4%

## CCc1occc(=O)c1O [Ethyl maltol]
[2]
  Sample B (1,3-propanediol) Mean: 1.25
  Sample A (PG) Mean: 1.25
  Percent Release Difference: 0.0%

## CCC/C=C/C(=O)O [Trans-2-hexenoic acid]
[2]
  Sample B (1,3-propanediol) Mean: 0.86
  Sample A (PG) Mean: 1.06
  Percent Release Difference: −18.3%

## CC(C=O)Cc1ccc(C(C)C)cc1 (centres unmarked) [Cyclamen aldehyde]
[2]
  Sample B (1,3-propanediol) Mean: 0.36
  Sample A (PG) Mean: 0.40
  Percent Release Difference: −10.0%

## C/C=C\C(=O)C1C(C)=CCCC1(C)C (stereo not drawn) [Alpha damascone]
[2]
  Sample B (1,3-propanediol) Mean: 0.57
  Sample A (PG) Mean: 0.82
  Percent Release Difference: −30.6%

## CCCCCCCCCC(=O)O [Decanoic acid]
[3]
  effect of 1,3-propanediol on release: minimal effect
[1]
  PTR-MS headspace release in 1,3-butanediol: 0.6
  PTR-MS headspace release in 1,3-propanediol: 0.20
  PTR-MS headspace release in 1,4-butanediol: 1.4
  PTR-MS headspace release in 1,7-heptanediol: 1.0
  PTR-MS headspace release in Propylene glycol: 0.25

## CCO [Ethanol]
[2]
  Sample B (1,3-propanediol) Mean: 24.50
  Sample A (PG) Mean: 22.17
  Percent Release Difference: 10.5%
[3]
  release suppressed in the presence of 1,3-propanediol: suppressed
  effect of 1,3-propanediol on release: significant suppression effect
[3]; [5]
  Percent Suppression by 1,3-propanediol: 11.9%
[3]; ratio 0.05:100
  Percent Suppression by 1,3-propanediol: −34.8%
[3]; ratio 5:100
  Percent Suppression by 1,3-propanediol: −12.1%
[3]; ratio 15:100
  Percent Suppression by 1,3-propanediol: −0.9%
[1]
  PTR-MS headspace release in 1,3-butanediol: 20.7
  PTR-MS headspace release in 1,3-propanediol: 18.60
  PTR-MS headspace release in 1,4-butanediol: 27.5
  PTR-MS headspace release in 1,7-heptanediol: 24.5
  PTR-MS headspace release in Propylene glycol: 28.52

## O=CCc1ccccc1 [Phenyl acetaldehyde]
[2]
  Sample B (1,3-propanediol) Mean: 0.78
  Sample A (PG) Mean: 0.80
  Percent Release Difference: −2.5%

## CCOC(C)=O [Ethyl acetate]
[2]
  Sample B (1,3-propanediol) Mean: 1410
  Sample A (PG) Mean: 1797
  Percent Release Difference: −21.5%

## CCCCCCO [Hexanol]
[3]
  release suppressed in the presence of 1,3-propanediol: suppressed
[3]; [5]
  Percent Suppression by 1,3-propanediol: −3.6%
[3]; ratio 0.05:100
  Percent Suppression by 1,3-propanediol: −45.9%
[3]; ratio 5:100
  Percent Suppression by 1,3-propanediol: −9.8%
[3]; ratio 15:100
  Percent Suppression by 1,3-propanediol: −20.0%
[1]
  PTR-MS headspace release in 1,3-butanediol: 0.3
  PTR-MS headspace release in 1,3-propanediol: 0.20
  PTR-MS headspace release in 1,4-butanediol: 0.5
  PTR-MS headspace release in 1,7-heptanediol: 0.3
  PTR-MS headspace release in Propylene glycol: 0.37
  Percent suppression by 1,3-butanediol relative to 1,4-butanediol: −50.0%
[4]; 1,3-propanediol versus propylene glycol as sole solvent, 95% significance
  Release Differences: Z
[4]
  release in 1,3-propanediol versus propylene glycol, solvent/solvent: released faster in 1,3-propanediol

## CCCC(=O)O [Butyric acid]
[3]
  effect of 1,3-propanediol on release: minimal effect
[3]; [5]
  Percent Suppression by 1,3-propanediol: 7.5%
[3]; ratio 0.05:100
  Percent Suppression by 1,3-propanediol: 8.0%
[3]; ratio 5:100
  Percent Suppression by 1,3-propanediol: −18.4%
[3]; ratio 15:100
  Percent Suppression by 1,3-propanediol: −6.0%
[1]
  PTR-MS headspace release in 1,3-butanediol: 91.7
  PTR-MS headspace release in 1,3-propanediol: 30.25
  PTR-MS headspace release in 1,4-butanediol: 143.8
  PTR-MS headspace release in 1,7-heptanediol: 140.0
  PTR-MS headspace release in Propylene glycol: 28.00
  Percent suppression by 1,3-butanediol relative to 1,4-butanediol: −56.8%

## OCCCO [1,3-propanediol]
[2]; watermelon flavor model, Table 2
  flavor retention compared to use of propylene glycol: generally resulted in increased flavor retention

## CCC(C)COC(C)=O (centres unmarked) [2-methylbutyl acetate]
[2]
  Sample B (1,3-propanediol) Mean: 4.27
  Sample A (PG) Mean: 5.30
  Percent Release Difference: −19.5%
